Experimental data: patent US20210024756A1, “STABILIZED COPPER GLASS” (CORNING INCORPORATED, priority 2018, published 2021)

System: E. coli
Assay: Minimum Inhibition Concentration, bacterial recovery grading
Assay type: cell-based
Design: key: −: No bacterial recovery.; +: Trace of contamination (<10colonies).; ++: Light contamination (>100 colonies).; +++: Heavy contamination (continuous smear of growth)
Settings: E. coli OD 0.441, 2.68 × 10^8 cell/mL

How did the “Bacterial growth (Minimum Inhibition Concentration)” value (0.0001 ppm (mg/L)) turn out when thiourea [Thiourea Ctrl] was run?
The value was “+++”.

What about the “Bacterial growth (Minimum Inhibition Concentration)” value (0.001 ppm (mg/L)) of the same substance?
The value was “+++”.

What about the “Bacterial growth (Minimum Inhibition Concentration)” value (0.01 ppm (mg/L)) of the same substance?
Its value is “+++”.

What about the “Bacterial growth (Minimum Inhibition Concentration)” value (0.1 ppm (mg/L)) of the same substance?
The value was “+++”.

And the “Bacterial growth (Minimum Inhibition Concentration)” value (1 ppm (mg/L))?
The value was “+++”.

What about the “Bacterial growth (Minimum Inhibition Concentration)” value (10 ppm (mg/L)) of the same substance?
Its value is “+++”.

What about the “Bacterial growth (Minimum Inhibition Concentration)” value (100 ppm (mg/L)) of the same substance?
The value was “+++”.

What about the “Bacterial growth (Minimum Inhibition Concentration)” value (1000 ppm (mg/L)) of the same substance?
The value was “+++”.

And the “Bacterial growth (Minimum Inhibition Concentration)” value (10000 ppm (mg/L))?
The value was “+++”.

And the “Bacterial growth (Minimum Inhibition Concentration)” value (100000 ppm (mg/L))?
The value was “+++”.

And the “Bacterial growth (Minimum Inhibition Concentration)” value (1000000 ppm (mg/L))?
The value was “−”.
